What is called IC50 is the concentration at which inhibition is half-maximal. The low end stands for greater potency, the high end for weaker potency.

One experiment has as its target T1, BRD4 BD2 (Homo sapiens, UniProt O60885).
T1 construct: HEK293 cells were transfected using NanoLuc-BRD4-BD1 or NanoLuc-BRD4-BD2 fusion vectors
Briefly: NanoBRET bromodomain assay, NanoLuc-BRD4-BD2 in HEK293 cells. It is filed as binding. The following applies: for Fold Selectivity BRD4 BD1/BD2: IC50 BD1/IC50 BD2, qualitative if an IC50 is at the upper limit. The protocol:
(§1) Plates were then incubated at 37° C.+5% CO2 incubator for 2 hours.
(§2) Fold Selectivity Calculated (IC50 BD1/IC50 BD2).

The target in a further experiment is T2, BRD4 BD1 (Homo sapiens, UniProt O60885).
T2 construct: HEK293 cells were transfected using NanoLuc-BRD4-BD1 or NanoLuc-BRD4-BD2 fusion vectors
The experiment in a line: NanoBRET bromodomain assay, NanoLuc-BRD4-BD1 in HEK293 cells. It is filed as binding. Here is the method: Exemplary compounds of the disclosure are active against BRD4 BD2 and selective over BRD4 BD1. BRD4 is a representative example of the BET family, as the binding sites of all BET family members are structurally similar. […] IC50s and fold selectivity's are determined as described below and are represented in Table 1.
as §1, §2
A general note: Bioluminescence resonance energy transfer reports proximity on the nanometre scale.

Structures are written as SMILES.

For the compound `Cn1cc(-c2cc(=O)n(C3CC3)cc2-c2ccccc2)c2cc(-c3ccccc3F)[nH]c2c1=O` [Example 47, 4-(1-cyclopropyl-2-oxo-5-phenyl-1,2-dihydropyridin-4-yl)-2-(2-fluorophenyl)-6-methyl-1,6-dihydro-7H-pyrrolo[2,3-c]pyridin-7-one], on BRD4 BD2, the IC50 is below 0.01 µM and the “Fold Selectivity BRD4 BD1/BD2” value was “xxxx (Fold >1000)”. The same compound returned an IC50 at BRD4 BD1 above 1 µM.

`Cn1cc(-c2cc(=O)n(C3CC3)cc2-c2ccccc2)c2cc(-c3cccc(F)c3F)[nH]c2c1=O` [Example 48, 4-(1-cyclopropyl-2-oxo-5-phenyl-1,2-dihydropyridin-4-yl)-2-(2,3-difluorophenyl)-6-methyl-1,6-dihydro-7H-pyrrolo[2,3-c]pyridin-7-one]: on BRD4 BD2, the IC50 was below 0.01 µM and the “Fold Selectivity BRD4 BD1/BD2” value was “xxxx (Fold >1000)”. At BRD4 BD1, this compound had a half-maximal inhibitory concentration (IC50) above 1 µM.

In the case of `Cn1cc(-c2cc(=O)n(C3CC3)cc2-c2ccccc2)c2cc(-c3ccc(F)cc3F)[nH]c2c1=O` [Example 49, 4-(1-cyclopropyl-2-oxo-5-phenyl-1,2-dihydropyridin-4-yl)-2-(2,4-difluorophenyl)-6-methyl-1,6-dihydro-7H-pyrrolo[2,3-c]pyridin-7-one], the IC50 against BRD4 BD2 was below 0.01 µM; at BRD4 BD1, above 1 µM. The “Fold Selectivity BRD4 BD1/BD2” value at BRD4 BD2 is given as “xxxx (Fold >1000)”.

For the compound `COc1cccc(-c2cc3c(-c4cc(=O)n(C5CC5)cc4-c4ccccc4)cn(C)c(=O)c3[nH]2)c1F` [Example 50, 4-(1-cyclopropyl-2-oxo-5-phenyl-1,2-dihydropyridin-4-yl)-2-(2-fluoro-3-methoxyphenyl)-6-methyl-1,6-dihydro-7H-pyrrolo[2,3-c]pyridin-7-one], on BRD4 BD2, the IC50 was below 0.01 µM and the “Fold Selectivity BRD4 BD1/BD2” value was “xxxx (Fold >1000)”. Further, the IC50 at BRD4 BD1 was above 1 µM.

For `Cn1cc(-c2cccc(C(C)(C)O)c2)c(-c2cn(C)c(=O)c3[nH]c(-c4ccc(F)cc4F)cc23)cc1=O` [Example 51, 2-(2,4-difluorophenyl)-4-(5-(3-(2-hydroxypropan-2-yl)phenyl)-1-methyl-2-oxo-1,2-dihydropyridin-4-yl)-6-methyl-1,6-dihydro-7H-pyrrolo[2,3-c]pyridin-7-one], at BRD4 BD2, the IC50 was below 0.01 µM and the “Fold Selectivity BRD4 BD1/BD2” value is “xxxx (Fold >1000)”. Besides, the IC50 on BRD4 BD1 is above 1 µM.

Take `COCCn1cc(-c2ccccc2)c(-c2cn(C)c(=O)c3[nH]c(-c4cnn(C(F)(F)F)c4)cc23)cc1=O` [Example 52, 4-(1-(2-methoxyethyl)-2-oxo-5-phenyl-1,2-dihydropyridin-4-yl)-6-methyl-2-(1-(trifluoromethyl)-1H-pyrazol-4-yl)-1,6-dihydro-7H-pyrrolo[2,3-c]pyridin-7-one]: at BRD4 BD2, the IC50 was below 0.01 µM and the “Fold Selectivity BRD4 BD1/BD2” value is “xxxx (Fold >1000)”. At BRD4 BD1, this compound came in with an IC50 above 1 µM.

Consider `COCCOc1cccc(-c2cn(C)c(=O)cc2-c2cn(C)c(=O)c3[nH]c(-c4ccc(F)cc4F)cc23)c1` [Example 53, 2-(2,4-difluorophenyl)-4-(5-(3-(2-methoxyethoxy)phenyl)-1-methyl-2-oxo-1,2-dihydropyridin-4-yl)-6-methyl-1,6-dihydro-7H-pyrrolo[2,3-c]pyridin-7-one], for which the IC50 against BRD4 BD2 was below 0.01 µM; against BRD4 BD1, above 1 µM. Further, the “Fold Selectivity BRD4 BD1/BD2” value at BRD4 BD2 is recorded as “xxxx (Fold >1000)”.

For `Cc1cccc(C)c1Oc1cn(C)c(=O)cc1-c1cn(C)c(=O)c2[nH]c(-c3cnc(C(C)C)s3)cc12` [Example 54, 4-(5-(2,6-dimethylphenoxy)-1-methyl-2-oxo-1,2-dihydropyridin-4-yl)-2-(2-isopropylthiazol-5-yl)-6-methyl-1,6-dihydro-7H-pyrrolo[2,3-c]pyridin-7-one], on BRD4 BD2, the IC50 was below 0.01 µM and the “Fold Selectivity BRD4 BD1/BD2” value was “xxxx (Fold >1000)”. Further, the IC50 against BRD4 BD1 is above 1 µM.

Turning to `Cc1cccc(C)c1Oc1cn(C)c(=O)cc1-c1cn(C)c(=O)c2[nH]c(-c3cc(F)cc(F)c3F)cc12` [Example 55, 4-(5-(2,6-dimethylphenoxy)-1-methyl-2-oxo-1,2-dihydropyridin-4-yl)-6-methyl-2-(2,3,5-trifluorophenyl)-1,6-dihydro-7H-pyrrolo[2,3-c]pyridin-7-one], on BRD4 BD2, the IC50 is below 0.01 µM and the “Fold Selectivity BRD4 BD1/BD2” value is recorded as “xxxx (Fold >1000)”. For the same compound, the IC50 against BRD4 BD1 is above 1 µM.

As for `COc1cccc(-c2cc3c(-c4cc(=O)n(C)cc4Oc4c(C)cccc4C)cn(C)c(=O)c3[nH]2)c1F` [Example 56, 4-(5-(2,6-dimethylphenoxy)-1-methyl-2-oxo-1,2-dihydropyridin-4-yl)-2-(2-fluoro-3-methoxyphenyl)-6-methyl-1,6-dihydro-7H-pyrrolo[2,3-c]pyridin-7-one], on BRD4 BD2, the IC50 is below 0.01 µM and the “Fold Selectivity BRD4 BD1/BD2” value is reported as “xxxx (Fold >1000)”. In addition, the IC50 on BRD4 BD1 is above 1 µM.

`Cc1cccc(C)c1Oc1cn(C)c(=O)cc1-c1cn(C)c(=O)c2[nH]c(-c3cccc(CO)c3F)cc12` [Example 57, 4-(5-(2,6-dimethylphenoxy)-1-methyl-2-oxo-1,2-dihydropyridin-4-yl)-2-(2-fluoro-3-(hydroxymethyl)phenyl)-6-methyl-1,6-dihydro-7H-pyrrolo[2,3-c]pyridin-7-one]: at BRD4 BD2, the IC50 is below 0.01 µM and the “Fold Selectivity BRD4 BD1/BD2” value is listed as “xxxx (Fold >1000)”. In addition, on BRD4 BD1, the IC50 is above 1 µM.

With `Cc1cccc(C)c1Oc1cn(C)c(=O)cc1-c1cn(C)c(=O)c2[nH]c(-c3ccc(CO)cc3F)cc12` [Example 58, 4-(5-(2,6-dimethylphenoxy)-1-methyl-2-oxo-1,2-dihydropyridin-4-yl)-2-(2-fluoro-4-(hydroxymethyl)phenyl)-6-methyl-1,6-dihydro-7H-pyrrolo[2,3-c]pyridin-7-one], at BRD4 BD2, the IC50 is below 0.01 µM and the “Fold Selectivity BRD4 BD1/BD2” value was “xxxx (Fold >1000)”. The compound also came in with an IC50 against BRD4 BD1 above 1 µM.

In the case of `Cn1cc(-c2cc(=O)n(CCOC(F)(F)F)cc2-c2ccccc2)c2cc(-c3cnn(C(F)(F)F)c3)[nH]c2c1=O` [Example 59, 6-methyl-4-(2-oxo-5-phenyl-1-(2-(trifluoromethoxy)ethyl)-1,2-dihydropyridin-4-yl)-2-(1-(trifluoromethyl)-1H-pyrazol-4-yl)-1,6-dihydro-7H-pyrrolo[2,3-c]pyridin-7-one], at BRD4 BD2, the IC50 lay in the range of 0.05 to 0.2 µM; the “Fold Selectivity BRD4 BD1/BD2” value is “xx (Fold >50 and ≤200)”. The IC50 against BRD4 BD1 was above 1 µM.

Turning to `Cn1cc(-c2cc(=O)n(CCO)cc2-c2ccccc2)c2cc(-c3cnn(C(F)(F)F)c3)[nH]c2c1=O` [Example 60, 4-(1-(2-hydroxyethyl)-2-oxo-5-phenyl-1,2-dihydropyridin-4-yl)-6-methyl-2-(1-(trifluoromethyl)-1H-pyrazol-4-yl)-1,6-dihydro-7H-pyrrolo[2,3-c]pyridin-7-one], the IC50 is 0.01 to 0.05 µM against BRD4 BD2 and above 1 µM on BRD4 BD1. Further, the “Fold Selectivity BRD4 BD1/BD2” value on BRD4 BD2 is “xxx (Fold >200 and ≤1000)”.

Regarding `CN(C)CCn1cc(-c2ccccc2)c(-c2cn(C)c(=O)c3[nH]c(-c4cnn(C(F)(F)F)c4)cc23)cc1=O.O=CO` [Example 61, 4-(1-(2-(dimethylamino)ethyl)-2-oxo-5-phenyl-1,2-dihydropyridin-4-yl)-6-methyl-2-(1-(trifluoromethyl)-1H-pyrazol-4-yl)-1,6-dihydro-7H-pyrrolo[2,3-c]pyridin-7-one formate], at BRD4 BD2, the IC50 was below 0.01 µM; the “Fold Selectivity BRD4 BD1/BD2” value was “x (Fold >2 and ≤50)”. The IC50 against BRD4 BD1 lay within 0.05 to 0.5 µM.

(Values after patent US20260217701A1, “SELECTIVE BET INHIBITORS AND USES THEREOF” (Tay Therapeutics Limited, priority 2022, published 2026).)
